Reference: patent US20150259331A1, “PROTOZOAN PARASITE GROWTH INHIBITORS” (Northeastern University, priority 2014, published 2015)
Like-named read-outs stand apart in the source and are kept apart here. Marks after values point to notes of the source that are not given here.

Tests used:
[1] = tested on: T. brucei brucei Lister 427; assay: Trypanosome replication assay; type: cell-based, Trypanosoma brucei brucei; conditions: 48 h, values ±7%
Protocol: Then 2 μL of DMSO (control) or different concentrations of drugs prepared from 200× DMSO stocks were added to the cultures. Cells were incubated at 37° C. for 48 h and counted with a hemocytometer. […] All experiments were repeated thrice in independent studies where each dose was administered in duplicate (total n=6). HepG2 Cell Toxicity Assay. The 384 well MTT cytotoxicity assay is a modification of the MTT method described by Ferrari et al. optimized for 384-well throughput, with modifications described below.

T. cruzi = T. cruzi growth inhibition; type: cell-based, Trypanosoma cruzi
L. major promastigote = L. major promastigote assay; type: cell-based
L. major amastigote = L. major amastigote assay; type: cell-based
P. falciparum D6 = P. falciparum D6 assay; type: cell-based; conditions: strain D6
P. falciparum W2 = P. falciparum W2 assay; type: cell-based
P. falciparum C235 = P. falciparum C235 assay; type: cell-based; conditions: read-out: P. falciparum C235 (EC50)
[2] = concentration giving 50% inhibition of growth of T brucei brucei Lister 427 cells, read-out: Tbb EC50
[3] = Trypanosoma brucei, concentration giving 50% inhibition of growth of T brucei brucei Lister 427 cells, read-out: Tbb EC50
[4] = Trypanosoma brucei, read-out: Tbb EC50, concentration giving 50% inhibition of growth of T brucei brucei Lister 427 cells
[5] = strain W2, read-out: P. falciparum W2 (EC50)
[6] = Plasmodium falciparum, strain W2, read-out: P. falciparum W2 (EC50)
[7] = Plasmodium falciparum, strain C235

| EC50 [1, 2] [nM] | EC50 (L. major promastigote) [nM] | EC50 (L. major amastigote) [nM] | EC50 (P. falciparum D6) [nM] | EC50 (P. falciparum W2; [5]) [nM] | EC50 (P. falciparum C235; strain C235) [nM] | Structure (SMILES) | further results |
| --- | --- | --- | --- | --- | --- | --- | --- |
| 650 | 2500 | 3500 | 39 | 73 | 65 | Fc1cccc(COc2ccc(Nc3ncnc4ccc(-c5cccc(CN6CCCCC6)c5)cc34)cc2Cl)c1 [Compound 23i] | EC50 (T. cruzi): 1500 nM |
| 1500 | 8400 | 5500 | 68 | 110 | 91 | Fc1cccc(COc2ccc(Nc3ncnc4ccc(-c5ccc(CN6CCCCC6)cc5)cc34)cc2Cl)c1 [Compound 23j] | EC50 (T. cruzi): 3400 nM |
| 1000 | 14000 | 14000 | 270 | 580 | 430 | CC(C)(C)OC(=O)N1CCN(S(=O)(=O)c2ccc(-c3ccc4ncnc(Nc5ccc(OCc6cccc(F)c6)c(Cl)c5)c4c3)cc2)CC1 [NEU-624] | T. cruzi % inh at 10 μM (T. cruzi): (5)* % |
| 1000 | 3600 | 1100 | 260 | 540 | 360 | Cc1cc(-c2ccc3ncnc(Nc4ccc(OCc5cccc(F)c5)c(Cl)c4)c3c2)cnc1N1CCOCC1 [NEU-632] | T. cruzi % inh at 10 μM (T. cruzi): 49% |
| 340 | > 15000 | > 15000 | 370 | 630 | 500 | O=C(c1cncc(-c2ccc3ncnc(Nc4ccc(OCc5cccc(F)c5)c(Cl)c4)c3c2)c1)N1CCOCC1 [NEU-640] | T. cruzi % inh at 10 μM (T. cruzi): −2% |
| 3900 | 4000 | 22000 | 790 | 2600 | 1200 | Fc1cccc(COc2ccc(Nc3ncnc4ccc(-c5ccccc5)cc34)cc2Cl)c1 [NEU-706] | EC50 (T. cruzi): 1800 nM |
| 250 |  |  |  |  |  | Fc1cccc(COc2ccc(Nc3ncnc4ccc(-c5cccc(N6CCNCC6)c5)cc34)cc2Cl)c1 [NEU-711] | EC50 (T. cruzi): 2200 nM |

The remaining lines, values behind:

| Structure (SMILES) | EC50 [1, 2] [nM] | EC50 (L. major promastigote) [nM] | EC50 (L. major amastigote) [nM] | EC50 (P. falciparum D6) [nM] | EC50 (P. falciparum W2; [5]) [nM] | EC50 (P. falciparum C235; strain C235) [nM] | further results |
| --- | --- | --- | --- | --- | --- | --- | --- |
| CCCS(=O)(=O)CCNCc1ccc(-c2ccc3ncnc(Nc4ccc(OCc5cccc(F)c5)c(Cl)c4)c3c2)o1 [Compound 3, reference compound] | 430 |  |  |  |  |  |  |
| CC(C)S(=O)(=O)CCNCc1ccc(-c2ccc3ncnc(Nc4ccc(OCc5cccc(F)c5)c(Cl)c4)c3c2)o1 [Compound 4, reference compound] | 480 |  |  |  |  |  |  |
| CS(=O)(=O)CCNCc1ccc(-c2ccc3ncnc(Nc4ccc(OCc5ccccc5)c(Br)c4)c3c2)o1 [Compound 7, reference compound] | 560 |  |  |  |  |  |  |
| CS(=O)(=O)CCN(Cc1ccccc1)Cc1ccc(-c2ccc3ncnc(Nc4ccc(OCc5cccc(F)c5)c(Cl)c4)c3c2)o1 [Compound 9, reference compound] | 1510 |  |  |  |  |  |  |
| Cc1ccc(-c2ccc3ncnc(Nc4ccc(OCc5cccc(F)c5)c(Cl)c4)c3c2)c2ccccc12 [Compound 10b, N-(3-Chloro-4-((3-fluorobenzyl)oxy)phenyl)-6-(4-methylnaphthalen-1-yl)quinazolin-4-amine] |  |  |  |  |  |  | EC50 [1, 3]: 2270 nM |
| CCNC(=O)c1ccc(-c2ccc3ncnc(Nc4ccc(OCc5cccc(F)c5)c(Cl)c4)c3c2)cc1F [Compound 10c, 4-(4-4-((3-Chloro-4-((3-fluorobenzyl)oxy)phenyl)amino)-quinazolin-6-yl)-N-ethyl-2-fluorobenzamide] | 3850 |  |  |  |  |  |  |
| Cc1nnc(-c2cccc(-c3ccc4ncnc(Nc5ccc(OCc6cccc(F)c6)c(Cl)c5)c4c3)c2)o1 [Compound 10d, N-(3-Chloro-4-((3-fluorobenzyl)oxy)phenyl)-6-(3-(5-methyl-1,3,4-oxadiazol-2-1)phenyl)quinazolin-4-amine] | 4210 |  |  |  |  |  |  |
| O=C(NC1CC1)c1cccc(-c2ccc3ncnc(Nc4ccc(OCc5cccc(F)c5)c(Cl)c4)c3c2)c1 [Compound 10e, 3-(4-((3-Chloro-4-((3-fluorobenzyl)oxy)phenyl)amino)-quinazolin-6-yl)-N-cyclopropylbenzamide] |  |  |  |  |  |  | EC50 [1, 3]: 4500 nM |
| Fc1cccc(COc2ccc(Nc3ncnc4ccc(-c5cccc6ncccc56)cc34)cc2Cl)c1 [Compound 10f, N-(3-Chloro-4-((3-fluorobenzyl)oxy)phenyl)-6-(quinolin-5-yl)quinazolin-4-amine] |  |  |  |  |  |  | EC50 [1, 3]: 4530 nM |
| Fc1cccc(COc2ccc(Nc3ncnc4ccc(-c5ccccc5Oc5ccccc5)cc34)cc2Cl)c1 [Compound 10g, N-(3-Chloro-4-((3-fluorobenzyl)oxy)phenyl)-6-(2-phenoxyphenyl)quinazolin-4-amine] |  |  |  |  |  |  | EC50 [1, 3]: 5300 nM |
| Fc1cccc(COc2ccc(Nc3ncnc4ccc(-c5cc6ccccc6s5)cc34)cc2Cl)c1 [Compound 10h, 6-(Benzo[b]thiopen-2-yl)-N-(3-chloro-4-((3-fluorobenzyl)-oxy)phenyl)quinazolin-4-amine] | 5980 |  |  |  |  |  |  |
| Oc1ccc(-c2ccc3ncnc(Nc4ccc(OCc5cccc(F)c5)c(Cl)c4)c3c2)cc1 [Compound 10i, 4-(4-((3-Chloro-4-((3-fluorobenzyl)oxy)phenyl)amino)-quinazolin-6-yl)phenol] |  |  |  |  |  |  | EC50 [1, 4]: 6450 nM |
| O=c1[nH]cc(-c2ccc3ncnc(Nc4ccc(OCc5cccc(F)c5)c(Cl)c4)c3c2)c(=O)[nH]1 [Compound 10j] | 22600 |  |  |  |  |  |  |
| CC(C)(C)NS(=O)(=O)c1ccccc1-c1ccc2ncnc(Nc3ccc(OCc4cccc(F)c4)c(Cl)c3)c2c1 [Compound 10w, N-(tert-Butyl)-2-(4-((3-chloro-4-((3-fluorobenzyl)oxy)-phenyl)amino)quinazolin-6-yl)benzenesulfonamide] |  |  |  |  |  |  | EC50 [1, 3]: 4660 nM; EC50 ([1]; concentration giving 50% inhibition of growth of T brucei brucei Lister 427 cells, listed as NEU-620, read-out: Tbb EC50): 4700 nM; EC50 (T. cruzi; Trypanosoma cruzi): 6400 nM |
| Cl.O=S(=O)(c1ccc(-c2ccc3ncnc(Nc4ccc(OCc5ccccc5F)c(Cl)c4)c3c2)cc1)N1CCOCC1 [Compound 20i] |  |  |  |  |  |  | T. cruzi % inh at 10 μM (T. cruzi): 10% |
| Fc1cccc(COc2ccc(Nc3ncnc4ccc(-c5cccc(CN6CCOCC6)c5)cc34)cc2Cl)c1 [Compound 23c] | 360 | 3300 | 3000 | 190 | 350 | 290 | EC50 (T. cruzi): 2400 nM |
| O=C(c1cccc(-c2ccc3ncnc(Nc4ccc(OCc5cccc(F)c5)c(Cl)c4)c3c2)c1)N1CCOCC1 [Compound 23e, (3-(4-((3-Chloro-4-((3-fluorobenzyl)oxy)phenyl)amino)-quinazolin-6-yl)phenyl)(morpholino)methanone] |  |  |  |  |  |  | EC50 [1, 3]: 550 nM; EC50 (T. cruzi; Trypanosoma cruzi): 3500 nM; EC50 (L. major promastigote; Leishmania major): 3000 nM; EC50 (L. major amastigote; Leishmania major): > 15000 nM; EC50 (P. falciparum D6; Plasmodium falciparum): 760 nM; EC50 (P. falciparum W2; [6]): 1100 nM; EC50 (P. falciparum C235; [7]): 1200 nM |
| O=C(c1ccc(-c2ccc3ncnc(Nc4ccc(OCc5cccc(F)c5)c(Cl)c4)c3c2)cc1)N1CCOCC1 [Compound 23f, (4-(4-((3-Chloro-4-((3-fluorobenzyl)oxy)phenyl)amino)-quinazolin-6-yl)phenyl)(morpholino)methanone] |  |  |  |  |  |  | EC50 [1, 3]: 1210 nM; EC50 ([1]; concentration giving 50% inhibition of growth of T brucei brucei Lister 427 cells, listed as NEU-783, read-out: Tbb EC50): 1200 nM; EC50 (T. cruzi; Trypanosoma cruzi): 2800 nM; EC50 (L. major promastigote; Leishmania major): 850 nM; EC50 (L. major amastigote; Leishmania major): 1400 nM; EC50 (P. falciparum D6; Plasmodium falciparum): 400 nM; EC50 (P. falciparum W2; [6]): 860 nM; EC50 (P. falciparum C235; [7]): 610 nM |
| Fc1cccc(COc2ccc(Nc3ncnc4ccc(-c5ccc(N6CCCCC6)cc5)cc34)cc2Cl)c1 [Compound 23h, N-(3-Chloro-4-((3-fluorobenzyl)oxy)phenyl)-6-(4-(piperidin-1-yl)phenyl)quinazolin-4-amine] |  |  |  |  |  |  | EC50 [1, 4]: 380 nM; EC50 (T. cruzi; Trypanosoma cruzi): 7200 nM; EC50 (L. major promastigote; Leishmania major): > 15000 nM; EC50 (L. major amastigote; Leishmania major): 5000 nM; EC50 (P. falciparum D6; Plasmodium falciparum): 580 nM; EC50 (P. falciparum W2; Plasmodium falciparum, W2, read-out: P. falciparum W2 (EC50)): 1200 nM; EC50 (P. falciparum C235; Plasmodium falciparum): 1000 nM |
| O=C(c1ccc(-c2ccc3ncnc(Nc4ccc(OCc5cccc(F)c5)c(Cl)c4)c3c2)cc1)N1CCCCC1 [Compound 23l, (4-(4-((3-Chloro-4-((3-fluorobenzyl)oxy)phenyl)amino)-quinazolin-6-yl)phenyl)(piperidin-1-yl)methanone] |  |  |  |  |  |  | EC50 [1, 3]: 940 nM; EC50 (T. cruzi; Trypanosoma cruzi): > 50000 nM; EC50 (L. major promastigote; Leishmania major): 1000 nM; EC50 (L. major amastigote; Leishmania major): 2900 nM; EC50 (P. falciparum D6; Plasmodium falciparum): 250 nM; EC50 (P. falciparum W2; [6]): 880 nM; EC50 (P. falciparum C235; [7]): 360 nM |
| O=C(c1cccc(-c2ccc3ncnc(Nc4ccc(OCc5cccc(F)c5)c(Cl)c4)c3c2)c1)N1CCCC1 [NEU-618] | 520 | > 15000 | > 15000 | 69 | 90 | 90 | T. cruzi % inh at 10 μM (T. cruzi): (7)* % |
| CC(C)(C)OC(=O)N1CCN(c2ccc(-c3ccc4ncnc(Nc5ccc(OCc6cccc(F)c6)c(Cl)c5)c4c3)cc2)CC1 [NEU-634] | 6000 | 3100 | 3100 | 860 | 3200 | 1100 | T. cruzi % inh at 10 μM (T. cruzi): (8)* % |
| CN(C)c1cccc(-c2ccc3ncnc(Nc4ccc(OCc5cccc(F)c5)c(Cl)c4)c3c2)c1 [NEU-708] | 2200 | > 15000 | > 15000 | 460 | 1400 | 550 | T. cruzi % inh at 10 μM (T. cruzi): (58)* % |
